Measurements published in patent publication US6861391B1, “Trifluoromethyl-substituted spirocyclic ketoenols” (Bayer Aktiengesellschaft, priority 1999, dated 2005).

Experiments:
[1] = test system: peach aphids (Myzus persicae); test: Myzus test (cabbage leaf dip); type: in vivo; conditions: cabbage leaves dipped
Experimental: Myzus test Solvent: 7 parts by weight of dimethylformamide Emulsifier: 1 part by weight of alkylaryl polyglycol ether To produce a suitable preparation of active compound, 1 part by weight of active compound is mixed with the stated amounts of solvent and emulsifier, and the concentrate is diluted with emulsifier-containing water to the desired concentration. Cabbage leaves (Brassica oleracea) which are heavily infested by peach aphids (Myzus persicae) are treated by being dipped into the preparation of active compound of the desired concentration. After the desired period of time, the kill in % is determined. 100% means that all aphids have been killed; 0% means that none of the aphids have been killed.

Meloidogyne incognita = test: Meloidogyne test (gall formation on lettuce roots); type: in vivo; conditions: 20 ppm active compound, nematicidal action by gall formation on lettuce
Experimental: Meloidogyne test Solvent: 7 parts by weight of dimethylformamide Emulsifier. 1 part by weight of alkylaryl polyglycol ether To produce a suitable preparation of active compound, 1 part by weight of active compound is mixed with the stated amounts of solvent and emulsifier, and the concentrate is diluted with water to the desired concentration. Vessels are filled with sand, solution of active compound, Meloidogyne incognita egg/larvae suspension and lettuce seeds. The lettuce seeds germinate and the plants develop. On the roots, galls develop. After the desired period of time, the nematicidal action is determined in % by the formation of galls. 100% means that no galls have been found; 0% means that the number of galls on the treated plants corresponds to that of the untreated control.

Myzus persicae = test: Critical concentration test/root-systemic action; type: in vivo; conditions: 1.25 ppm in soil; root-systemic, broad beans; populated after 7 days, evaluated after a further 8 days
Experimental: Critical concentration test/root-systemic action Test insect: Myzus persicae Solvent: 4 parts by weight of acetone Emulsifier: 1 part by weight of alkylaryl polyglycol ether To produce a suitable preparation of active compound, 1 part by weight of active compound is mixed with the stated amount of solvent, the stated amount of emulsifier is added and the concentrate is diluted with water to the desired concentration. The preparation of active compound is mixed intimately with the soil. The concentration of the active compound in the preparation is virtually immaterial, only the amount by weight of active compound per volume unit of soil, which is stated in ppm […], being decisive. The treated soil is filled into 250 ml pots and pregerminated broad beans are planted in these. Thus, the active compound can be taken up by the plant roots from the soil and then transported into the leaves. To assess the root-systemic effect, the plants are populated with the above-mentioned test animals after 7 days. After a further 8 days, evaluation is carried out by counting or estimating the number of dead animals. The root-systemic action of the active compound is derived from the number of animals killed. It is 100% if all test animals have been killed and 0% when the number of test insects that are still alive is the same as for the untreated control.

[2] = test system: larvae of the mustard beetle (Phaedon cochleariae); test: Phaedon larvae test (cabbage leaf dip); type: in vivo; conditions: 100 ppm active compound, cabbage leaves dipped
Experimental: Phaedon larvae test Solvent: 7 parts by weight of dimethylformamide Emulsifier: 1 part by weight of alkylaryl polyglycol ether To produce a suitable preparation of active compound, 1 part by weight of active compound is mixed with the stated amounts of solvent and emulsifier, and the concentrate is diluted with emulsifier-containing water to the desired concentration. Cabbage leaves (Brassica oleracea) are treated by being dipped into the preparation of active compound of the desired concentration and are populated with larvae of the mustard beetle (Phaedon cochleariae) while the leaves are still moist. After the desired period of time, the kill in % is determined. 100% means that all beetle larvae have been killed; 0% means that none of the beetle larvae have been killed.

SMILES | melting point [°C] | Kill rate in % after 6 d ([1]; 1000 ppm active compound) [%] | other results
Cc1ccc(C)c(C2=C(O)C3(CCC(C(F)(F)F)CC3)NC2=O)c1 (stereo not shown) [Example I-1-a-2] | 245 |  | 
Cc1cc(C)c(C2=C(O)C3(CCC(C(F)(F)F)CC3)OC2=O)cc1C (stereo not shown) [Example I-2-a-2] | 212 to 214 | 100 | 
Cc1ccc(C)c(C2=C(O)C3(CCC(C(F)(F)F)CC3)OC2=O)c1 (stereo not shown) [Example I-2-a-1] |  |  | Kill rate in % after 7 d (Meloidogyne incognita): 90%
Cc1cc(C)c(C2=C(O)C3(CCC(C(F)(F)F)CC3)NC2=O)c(C)c1 (stereo not shown) [Example I-1-a-1] |  |  | Kill rate in % at active compound concentrations in ppm (Myzus persicae): 1.25 ppm = 100%
Cc1cc(C)c(C2=C(O)C3(CCC(C(F)(F)F)CC3)NC2=O)c(C)c1C (stereo not shown) [Example I-1-a-5] | > 250 |  | Kill rate in % after 6 d ([1]; 100 ppm active compound): 100%
Cc1cc(C)c(C2=C(O)C3(CCC(C(F)(F)F)CC3)OC2=O)c(C)c1C (stereo not shown) [Example I-2-a-3] | 159 to 161 |  | 
Cc1cc(Cl)c(C2=C(O)C3(CCC(C(F)(F)F)CC3)NC2=O)c(Cl)c1 (stereo not shown) [Example I-1-a-4] | > 250 |  | 
Cc1cc(C)c(C2=C(OC(=O)C(C)C)C3(CCC(C(F)(F)F)CC3)NC2=O)c(C)c1 (stereo not shown) [Example I-1-b-1] |  | 95 | Kill rate in % after 7 d [2]: 100%
Cc1cc(C)c(C2=C(O)C3(CCC(C(F)(F)F)CC3)NC2=O)cc1C (stereo not shown) [Example I-1-a-3] | 175 | 80 | 
Cc1ccc(Br)c(C2=C(O)C3(CCC(C(F)(F)F)CC3)NC2=O)c1 (stereo not shown) [Example I-1-a-7] | 212 |  | 
Cc1cc(Cl)cc(C)c1C1=C(O)C2(CCC(C(F)(F)F)CC2)NC1=O (stereo not shown) [Example I-1-a-6] | > 248 |  | 
CCOC(=O)OC1=C(c2c(C)cc(C)cc2C)C(=O)NC12CCC(C(F)(F)F)CC2 (stereo not shown) [Example I-1-c-1] |  | 100 | 
